Experimental data reported in publication PMC3218054, “Characterisation of the Interaction of the C-Terminus of the Dopamine D2 Receptor with Neuronal Calcium Sensor-1” (PLoS ONE, 2011).
Like-named read-outs stand apart in the source and are kept apart here. One block for each sequence: values may come before it. Ends that are not written are not given here.

Columns and labels:
[1] = molecular target: T1, NCS-1 (Rattus norvegicus, UniProt P62168); assay: Intrinsic tryptophan fluorescence titration of peptide binding to wild type NCS-1
T1 construct: His tag (TEV-cleavable, pET-M11) (N, cleaved yes); made in house; host or cells: E. coli BL21 (DE3)
Protocol: (§1) An expression construct of Rattus norvegicus NCS-1 [6] was sub-cloned from a pGEX-6p plasmid expressing NCS-1 [36] into pET-M11 vector. The primers were designed based on the cDNA sequence obtained from GenBank accession no. L27421 with Nco-1 and Kpn-1 as restriction digest sites. The sense and antisense strands were 5′[…] 3′ and 5′[…] CTA TAC CAG CCC GTC GTA 3 ′ respectively. Polymerase chain reaction was carried out using KOD Hot Start DNA Polymerase from Novagen. Confirmation of the insert was obtained through DNA sequencing. The R102Q mutation was generated by site-directed mutagenesis.
NCS-1 plasmid was transformed into E.coli strain BL21 (DE3) (Novagen). Protein expression in Luria Broth (LB) and 2M9 minimal media performed by growing the cells to mid log (0.6–0.7 OD A^o600) at 30 °C; after induction with 1 mM IPTG the culture was left to grow overnight at 18 °C. ^15N NCS-1 and doubly labelled ^13C^15N proteins were expressed using 2M9 media containing ^15NH4Cl only or ^13C glucose and ^15NH4Cl as the carbon and nitrogen source. 1 ml of the starter culture was grown in LB overnight, centrifuged, and the pellet added to a 50 ml labelled media and left to grow overnight in 50 ml labelled culture. The overnight culture was used to inoculate the labelled growth medium so that the starting optical density was less than 0.1 A-600 and protein expressed as described above. […]
(§2) To monitor intrinsic tryptophan fluorescence of NCS-1 proteins, [37], purified recombinant NCS-1 at a concentration of 1 µM in a calcium free buffer (20 mM HEPES, 139 mM NaCl, 2 mM ATP, 5 mM EGTA, 5 mM nitrolotriacetic acid, pH 7.4) were excited at room temperature with 280 nm light, and their emission spectra from 290–410 nm were measured, using a Jasco FP-6300 spectrofluorometer (Tokyo, Japan). The concentration of free calcium was increased by addition of CaCl2 to give a calculated free Ca^2+ concentration of 1 µM and an additional emission spectrum were measured. The D2 peptide was then added to give incremental increase in peptide concentration with emission spectra measured after each addition. The data for the measured fluorescence change at each peptide concentration were fitted to a logistic fit using non-linear curve fitting in OriginPro (Microcal).
Figure 2 Binding of the dopamine D2 receptor C-terminus to NCS-1 monitored using tryptophan fluorescence. (A) The spectra represent intrinsic tryptophan fluorescence of NCS-1 before and after addition 1 µM Ca^2+ and after subsequent addition of the D2SR peptide. (B) Extent of the changes in tryptophan fluorescence following sequential additions of D2SR peptide to the final concentrations indicated. […]

[2] = molecular target: T1, NCS-1; assay: NMR titration / chemical shift mapping of peptide binding to NCS-1
Protocol: as §1
NCS-1 plasmid was transformed into E.coli strain BL21 (DE3) (Novagen). Protein expression in Luria Broth (LB) and 2M9 minimal media performed by growing the cells to mid log (0.6–0.7 OD A^o600) at 30 °C; after induction with 1 mM IPTG the culture was left to grow overnight at 18 °C. ^15N NCS-1 and doubly labelled ^13C^15N proteins were expressed using 2M9 media containing ^15NH4Cl only or ^13C glucose and ^15NH4Cl as the carbon and nitrogen source. 1 ml of the starter culture was grown in LB overnight, centrifuged, and the pellet added to a 50 ml labelled media and left to grow overnight in 50 ml labelled culture. The overnight culture was used to inoculate the labelled growth medium so that the starting optical density was less than 0.1 A-600 and protein expressed as described above. Cells were harvested and resuspended into the lysis buffer (50 mM TrisHCl, 200 mM NaCl 5 mMCaCl2 pH 7.5 plus a tablet per litre of culture of Complete EDTA Free Protease inhibitor (Roche Applied Science).
NCS-1 was prepared in Tris buffer pH 6.8 in the presence of 5 mM MgCl2 and 5 mM CaCl2. Unless otherwise state, NMR spectra were recorded at 27 °C on Bruker DRX 800 and 600 MHz spectrometers equipped with CryoProbes. Data were processed using the Bruker Software TopSpin and analysed using CCPN software. Sequence-specific backbone and side-chain resonance assignment of NCS-1 was transferred from the previously reported assignments on unmyristoylated Ca^2+ loaded NCS-1 (Biological Magnetic Resonance Data Bank accession number 4378); however, due to differences in sample conditions and temperature, many resonances were re-assigned during the course of these studies using HNCA, HN(CO)CA, HNCO, HN(CA)CO, CBCA(CO)NH, CBCANH, HBHA(CO)NH and HCCH-TOCSY experiments. In addition, the resonance assignment for the aromatic side-chain had been incomplete. The aromatic side-chains were partially assigned using 2D [^1H, ^13C] -TROSY, and homonuclear TOCSY and NOESY spectra recorded in D2O.
(§3) Two peptides D2 and D2SR were used for the NMR studies. […] The peptides were first dissolved in minimal amounts of DMSO (approximately 1–2 µl) before adding the protein solution to achieve the appropriate peptide to protein ratio.
The minimum chemical-shift differences between free and D2-bound NCS-1 were expressed as: Δδ = √ {(ΔH/0.03)^2 + (ΔN/0.03)^2}. Values of Δδ greater than 0.07 were considered significant.
Figure 3 Interactions between NCS-1 and D2 Peptide monitored using NMR spectroscopy. (A) ^1H^15N HSQC spectra of ^15N,^13C NCS-1 (1 mM) in 50 mM Tris buffer, 50 mM NaCl, 5 mM CaCl2, pH 6.5, 300 K on Avance Bruker 800 MHz spectrometer in the absence (black) or in the presence of D2SR at a final concentration of 5 mM (red). (B) Sections of ^1H^15N HSQC spectra of ^15N,^13C NCS-1 showing the progression of peaks throughout the peptide titration (from black to red). Shown are the various characteristics of resonance perturbation ranging from complete line-broadening to gradual change in chemical shifts or a mixture of shifts and line-broadening. (C) ^1H^13C HSQC spectra of ^15N,^13C NCS-1 (1 mM) (black) in the presence of D2SR (final concentration of 5 mM) (red) indicating some of the resolved methyl groups with most significant shift changes.

[3] = system: NCS-1; conditions: receptor residues 428–435; cited from earlier work
Description: This seems surprising as these are the cytoplasmic residues in closest proximity to the transmembrane domain of the receptor and that in the structure of the dopamine D3 receptor (PDB accession 3PBL), the first two amino acids TF form part of penultimate helix VII of the receptor, rather than the C-terminus helix VIII.

[4] = Solubility of peptides in aqueous buffer; assay type: physicochemical
Description: The peptide (hereafter referred to as D2 peptide) used here corresponds to residues 428–443 of the human D2 receptor. The synthetic D2 peptide ([…]) and its modified form D2SR ([…]), were purchased from Peptide Protein Research Ltd., Fareham, PO15 6DP, UK. The shorter form, corresponding to residues 428–435 ([…]) were, purchased from GenicBio, China. The peptides was delivered >95% pure. […] Therefore, in all the experiments, peptide samples were first dissolved in a minimal amount of DMSO and then diluted with the relevant buffer. If necessary, pH values of the samples were re-adjusted to the desired value.
as §3

[5] = system: NCS-1; assay: Peptide binding to NCS-1, preliminary data (technique not stated)
[6] = molecular target: T2, R102Q NCS-1 (Rattus norvegicus, UniProt P62168, R102Q); assay: Intrinsic tryptophan fluorescence titration of peptide binding to R102Q NCS-1
T2 construct: His tag (TEV-cleavable, pET-M11) (N, cleaved yes); made in house; host or cells: E. coli BL21 (DE3)
Protocol: as §1, §2
Figure 6 Significant line-broadening in the C-terminal region of NCS-1 and effect of the R102Q mutation on peptide binding. […] (B) Extent of the changes in tryptophan fluorescence following sequential additions of D2SR peptide to the final concentrations indicated in the presence of 1 µM Ca^2+. […] (C) Curve fitting of data from separate tryptophan fluorescence experiments enables determination of the concentration of D2SR peptide required for half-maximal binding and the Hill coefficient for wild type and R102Q NCS-1. […]

[7] = up to a 10-fold excess of peptide

T2 sequence (P62168 whole entry R102Q): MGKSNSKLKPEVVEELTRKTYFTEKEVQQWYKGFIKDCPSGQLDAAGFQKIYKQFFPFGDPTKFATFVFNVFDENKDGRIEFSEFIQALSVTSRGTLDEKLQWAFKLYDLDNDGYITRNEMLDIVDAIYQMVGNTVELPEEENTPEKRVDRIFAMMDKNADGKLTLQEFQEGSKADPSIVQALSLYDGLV
T1 sequence (P62168 whole entry): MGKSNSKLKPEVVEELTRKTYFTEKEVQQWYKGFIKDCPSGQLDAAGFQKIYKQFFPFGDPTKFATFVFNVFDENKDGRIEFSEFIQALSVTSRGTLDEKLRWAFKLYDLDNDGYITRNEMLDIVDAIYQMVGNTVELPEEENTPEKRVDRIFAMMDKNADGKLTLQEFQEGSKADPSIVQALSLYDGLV

ability to bind NCS-1 (restated finding, binding assays) ([1]; 8-residue peptide, binding assays = fluorescence and NMR titrations): not able to bind NCS-1
interaction with NCS-1 by fluorescence titration [1, 7]: no evidence for an interaction
interaction with NCS-1 by NMR titration [2, 7]: no evidence for an interaction
Sequence: TFNIEFRK [shorter form, corresponding to residues 428–435 of the D2 receptor]
binding to NCS-1 (yeast 2-hybrid) [3]: shortest peptide that could bind NCS-1

solubility in aqueous buffer [4]: rather insoluble in aqueous buffer
Sequence: TFNIEFRKAFLKILHC [D2 peptide]

Sequence: NIEFRKAFLKILHS
affinity for NCS-1 relative to TFNIEFRKAFLKILHS [5]: able to bind NCS-1 with similar affinity to […]

Hill coefficient ([1]; D2SR, wild type NCS-1, 1 µM free Ca^2+, logistic fit, n = 5): ~1.5
Hill coefficient ([6]; D2SR, R102Q NCS-1, 1 µM Ca^2+, logistic fit, n = 4): around 1.5
increase in affinity of the protein for D2SR by R102Q mutation ([6]; R102Q (n = 4) versus wild type (n = 5) NCS-1, 1 µM Ca^2+, unpaired Student's t-test): 2.07 fold
exchange regime of NCS-1 resonances ([2]; HSQC titration, D2SR): intermediate to fast exchange regime
least affected NCS-1 regions ([2]; HSQC titration, D2SR): helices1, 5, 8 and part of 2
solubility in aqueous buffer ([4]; peptides first dissolved in DMSO, then diluted with buffer): rather insoluble in aqueous buffer
solubility improvement over D2 peptide ([4]; two extra amino acids intended to increase solubility): solubility improvement was only marginal
Sequence: TFNIEFRKAFLKILHSR [D2SR]
change in NCS-1 tryptophan fluorescence above that following addition of 1 µM free Ca^2+ ([1]; 1 µM free Ca^2+): additional increase in fluorescence of a similar magnitude
affinity of binding to R102Q versus wild type NCS-1 ([6]; compared with wild-type NCS-1): affinity of binding was increased in the mutant
most affected NCS-1 regions, mapped onto 1G8I ([2]; HSQC titration, D2SR): residues located either in the hydrophobic ligand-binding crevice or in the regions linking the helical regions of the EF hands
NCS-1 resonance perturbation (chemical shift changes/broadening) ([2]; ^1H-^15N and ^1H-^13C HSQC of ^15N,^13C NCS-1, 27 °C and 35 °C): At both temperatures chemical shift changes and/or broadening of specific NCS-1 resonances were observed
line-broadening of C-terminal residues 180–190 (helix 11) of NCS-1 ([2]; ^1H^15N HSQC, peptide titration, 1 mM NCS-1, 0.5 mM D2SR, pH 6.5, 300 K): line-broadening occurring at sub-stoichiometric concentrations of D2SR
